{
  "source": "patent US20150253330A1",
  "about": "“PRE-SELECTION OF SUBJECTS FOR THERAPEUTIC TREATMENT WITH AN HSP90 INHIBITOR BASED ON HYPOXIC STATUS” (Synta Pharmaceuticals Corp., priority 2012, published 2015)",
  "system": "BT-474 breast cancer cells grown as mammospheres",
  "assay": "Viability of mammospheres in Matrigel, 72 hr, AlamarBlue",
  "format": "cell-based",
  "conditions": "Homo sapiens, BT-474 mammospheres in Matrigel",
  "description": "The cells were treated for 72 hr and analyzed by microscopy. IC50 was determined by AlamarBlue®.\nBT-474 HER2+ luminal cells were cultured as mammospheres in Matrigel® and exposed to ganetespib for 72 hr.",
  "data": [
    {"smiles": "CC(C)c1cc(-c2nnc(O)n2-c2ccc3c(ccn3C)c2)c(O)cc1O", "note": "[ganetespib]", "values": [
      {"measurement": "IC50", "value": 20, "unit": "nM"}
    ]}
  ]
}
